From patent US6670446B1, “N1 modified glycopeptides” (Eli Lilly and Company, priority 1998, dated 2003)

How the values were obtained:
Type in all cases: cell-based
[1] = tested on: Resistant Enterococcus faecium and faecalis; experiment: MIC, standard broth micro-dilution assay, Resistant; conditions: geometric mean of 4-6 isolates
Protocol: (§1) The antibacterial efficacy of the present compounds is illustrated by Table III. The minimal inhibitory concentrations (MICs) were determined using a standard broth micro-dilution assay.

[2] = tested on: Sensitive Enterococcus faecium and faecalis; experiment: MIC, standard broth micro-dilution assay, Sensitive; conditions: geometric mean of 4-6 isolates
Protocol: as §1

[3] = tested on: Staphylococcus aureus 446; experiment: MIC, standard broth micro-dilution assay, SA 446
Protocol: as §1

[4] = tested on: Staphylococcus aureus 489; experiment: MIC, standard broth micro-dilution assay, SA 489
Protocol: as §1

[5] = tested on: Staphylococcus aureus 447; experiment: MIC, standard broth micro-dilution assay, SA 447
Protocol: as §1

[6] = tested on: Staphylococcus aureus X400; experiment: MIC, standard broth micro-dilution assay, SA X400
Protocol: as §1

[7] = tested on: Staphylococcus aureus X778; experiment: MIC, standard broth micro-dilution assay, SA X778
Protocol: as §1

[8] = tested on: Staphylococcus aureus 491; experiment: MIC, standard broth micro-dilution assay, SA 491
Protocol: as §1

[9] = tested on: Staphylococcus aureus S13E
Protocol: as §1

[10] = tested on: Staphylococcus aureus SA1199; experiment: MIC, standard broth micro-dilution assay, SA 1199
Protocol: as §1

[11] = tested on: Staphylococcus aureus SA1199A; experiment: MIC, standard broth micro-dilution assay, SA 1199A
Protocol: as §1

[12] = tested on: Staphylococcus haemolyticus 105; experiment: MIC, standard broth micro-dilution assay, SH 105
Protocol: as §1

[13] = tested on: Staphylococcus haemolyticus 415; experiment: MIC, standard broth micro-dilution assay, SH 415
Protocol: as §1

[14] = tested on: Staphylococcus epidermidis 270; experiment: MIC, standard broth micro-dilution assay, SE 270
Protocol: as §1

Enterococcus faecium 180 = experiment: MIC, standard broth micro-dilution assay, EF 180
Protocol: as §1

[15] = tested on: Enterococcus faecium 180-1; experiment: MIC, standard broth micro-dilution assay, EF 180-1
Protocol: as §1

[16] = tested on: Enterococcus faecalis 2041; experiment: MIC, standard broth micro-dilution assay, EF 2041
Protocol: as §1

[17] = tested on: Enterococcus faecalis 276; experiment: MIC, standard broth micro-dilution assay, EF 276
Protocol: as §1

[18] = tested on: Enterococcus gallinarum 245; experiment: MIC, standard broth micro-dilution assay, EG 245
Protocol: as §1

[19] = tested on: Haemophilus influenzae RD; experiment: MIC, standard broth micro-dilution assay, HFRD
Protocol: as §1

Escherichia coli EC14 = experiment: MIC, standard broth micro-dilution assay, EC 14
Protocol: as §1

Structure (SMILES)	minimal inhibitory concentration (MIC), Resistant [1]	minimal inhibitory concentration (MIC), Sensitive [2]	minimal inhibitory concentration (MIC), SA 446 [3]	minimal inhibitory concentration (MIC), SA 489 [4]	minimal inhibitory concentration (MIC), SA 447 [5]	minimal inhibitory concentration (MIC), SA X400 [6]	minimal inhibitory concentration (MIC), SA X778 [7]	minimal inhibitory concentration (MIC), SA 491 [8]	minimal inhibitory concentration (MIC), SA S13E [9]	minimal inhibitory concentration (MIC), SA 1199 [10]	minimal inhibitory concentration (MIC), SA 1199A [11]	minimal inhibitory concentration (MIC), SH 105 [12]	minimal inhibitory concentration (MIC), SH 415 [13]	minimal inhibitory concentration (MIC), SE 270 [14]	minimal inhibitory concentration (MIC), EF 180 (Enterococcus faecium 180)	minimal inhibitory concentration (MIC), EF 180-1 [15]	minimal inhibitory concentration (MIC), EF 2041 [16]	minimal inhibitory concentration (MIC), EF 276 [17]	minimal inhibitory concentration (MIC), EG 245 [18]	minimal inhibitory concentration (MIC), HFRD [19]	other results
CC(C)CC(NC(=O)OC(C)(C)C)C(=O)NC1C(=O)NC(CC(N)=O)C(=O)NC2C(=O)NC3C(=O)NC(C(=O)NC(C(=O)O)c4cc(O)cc(O)c4-c4cc3ccc4O)C(OC3CC(C)(N)C(O)C(C)O3)c3ccc(c(Cl)c3)Oc3cc2cc(c3OC2OC(CO)C(O)C(O)C2OC2CC(C)(NCc3ccc(-c4ccccc4)cc3)C(O)C(C)O2)Oc2ccc(cc2Cl)C1O [Example 18, N^1-(N-BOC-D-leucine) derivative of N^DISACC-(p-phenylbenzyl)desleucylA82846B]	27	0.87	0.5	0.125	0.5	0.25	0.25	≦.06	0.5	0.5	no growth	1	1	0.25	2	0.5	≦.06	0.5	1	16	minimal inhibitory concentration (MIC), EC 14 (Escherichia coli EC14): >64
CC1OC(OC2c3ccc(c(Cl)c3)Oc3cc4cc(c3OC3OC(CO)C(O)C(O)C3OC3CC(C)(NCc5ccc(-c6ccccc6)cc5)C(O)C(C)O3)Oc3ccc(cc3Cl)C(O)C(NC(=O)C(Cc3ccc(Cl)cc3)NC(=O)OC(C)(C)C)C(=O)NC(CC(N)=O)C(=O)NC4C(=O)NC3C(=O)NC2C(=O)NC(C(=O)O)c2cc(O)cc(O)c2-c2cc3ccc2O)CC(C)(N)C1O [Example 21, N^1-[N-BOC-D-3-(p-chlorophenyl)alanine] derivative of N^DISACC-(p-phenylbenzyl)desleucylA82846B]	11	1.5	0.5	0.25	0.5	0.5	0.5	0.5	0.5	0.5	no growth	2	2	0.5	1	0.5	0.5	1	1	2	minimal inhibitory concentration (MIC), EC 14 (Escherichia coli EC14): >64
CC(C)CCC(=O)NC1C(=O)NC(CC(N)=O)C(=O)NC2C(=O)NC3C(=O)NC(C(=O)NC(C(=O)O)c4cc(O)cc(O)c4-c4cc3ccc4O)C(OC3CC(C)(N)C(O)C(C)O3)c3ccc(c(Cl)c3)Oc3cc2cc(c3OC2OC(CO)C(O)C(O)C2OC2CC(C)(NCc3ccc(-c4ccccc4)cc3)C(O)C(C)O2)Oc2ccc(cc2Cl)C1O (stereo not drawn) [Example 5, N^1-(4-methyl-n-pentanoyl)-N^DISACC-(p-phenylbenzyl)desleucylA82846B]	27	0.44	0.125	0.125	≦.06	≦.06	0.125	≦.06	0.125	0.25	≦.06	≦.06	1	0.25	4	≦.06	≦.06	1	0.25	>64	minimal inhibitory concentration (MIC), EC 14 (Escherichia coli EC14): >64
CC(C)CC(NCc1ccc(-c2ccccc2)cc1)C(=O)NC1C(=O)NC(CC(N)=O)C(=O)NC2C(=O)NC3C(=O)NC(C(=O)NC(C(=O)O)c4cc(O)cc(O)c4-c4cc3ccc4O)C(OC3CC(C)(N)C(O)C(C)O3)c3ccc(c(Cl)c3)Oc3cc2cc(c3OC2OC(CO)C(O)C(O)C2OC2CC(C)(NCc3ccc(-c4ccccc4)cc3)C(O)C(C)O2)Oc2ccc(cc2Cl)C1O [Example 35, N^1-[N-(p-phenylbenzyl)-D-leucine] derivative of N^DISACC-(p-phenylbenzyl)desleucylA82846B]	4.8	0.66	2	2	2	2	1	1	2	2	1	0.5	2	1	1	0.25	0.5	1	1	>64	minimal inhibitory concentration (MIC), EC 14 (Escherichia coli EC14): >64
CC1OC(OC2c3ccc(c(Cl)c3)Oc3cc4cc(c3OC3OC(CO)C(O)C(O)C3OC3CC(C)(NCc5ccc(-c6ccc(Cl)cc6)cc5)C(O)C(C)O3)Oc3ccc(cc3Cl)C(O)C(NC(=O)CCCCCCCc3ccccc3)C(=O)NC(CC(N)=O)C(=O)NC4C(=O)NC3C(=O)NC2C(=O)NC(C(=O)O)c2cc(O)cc(O)c2-c2cc3ccc2O)CC(C)(N)C1O (stereo not drawn) [Example 8, N^1-(8-phenyl-n-octanoyl)-N^DISACC-[p-(p-chlorophenyl)benzyl]desleucylA82846B]	4	2	16	8	8	8	4	4	8	4	2	2	8	8	2	1	2	1	2	>64	minimal inhibitory concentration (MIC), EC 14 (Escherichia coli EC14): >64
CC1OC(OC2c3ccc(c(Cl)c3)Oc3cc4cc(c3OC3OC(CO)C(O)C(O)C3OC3CC(C)(NCc5ccc(-c6ccccc6)cc5)C(O)C(C)O3)Oc3ccc(cc3Cl)C(O)C(NC(=O)C(Cc3c[nH]c5ccccc35)NC(=O)OC(C)(C)C)C(=O)NC(CC(N)=O)C(=O)NC4C(=O)NC3C(=O)NC2C(=O)NC(C(=O)O)c2cc(O)cc(O)c2-c2cc3ccc2O)CC(C)(N)C1O [Example 25, N^1-(N-BOC-D-tryptophan) derivative of N^DISACC-(p-phenylbenzyl)desleucylA82846B]	27	1.3	4	1	2	2	2	2	2	1	0.5	2	4	2	8	≦.06	1	2	2	>64	minimal inhibitory concentration (MIC), EC 14 (Escherichia coli EC14): >64
